From ChEMBL document CHEMBL3244268, “Nucleosides. 102. Synthesis of some 3'-deoxy-3'-substituted arabinofuranosylpyrimidine nucleosides” (1977) come the findings set out here.

Converted amounts (≈) assume the structure as drawn.

The test system of assay [1] is L5178Y. Put plainly: Growth inhibition of mouse L5178Y cells at 10 ug/ml. In kind it is functional. As to conditions: read-out: GI.
For assay [2], the system named is L5178Y. Put plainly: Growth inhibition of mouse L5178Y cells. In kind it is functional. Conditions: read-out: ID50 (the source's name).

On to `O=c1ccn([C@@H]2O[C@H](CO)[C@@H](Br)[C@@H]2O)c(=O)[nH]1`, for which the inhibition of growth at 10 µg/mL in the assay with L5178Y [1] amounted to 6%. On the same count and under the same terms, the value for `O=c1ccn([C@@H]2O[C@H](CO)[C@@H](I)[C@@H]2O)c(=O)[nH]1` was 0%; that for `O=c1ccn([C@@H]2O[C@H](CO)[C@@H](N=C=S)[C@@H]2O)c(=O)[nH]1` was 5%.

On to `Nc1ccn([C@@H]2O[C@H](CO)[C@@H](I)[C@@H]2O)c(=O)n1`, for which the IC50 in the assay on L5178Y [2] was determined as 1 µg/mL (≈ 2.83 µM).

With `[N-]=[N+]=N[C@H]1[C@H](O)[C@H](n2ccc(=O)[nH]c2=O)O[C@@H]1CO`, the inhibition of growth at 10 µg/mL in the assay with L5178Y [1] is 0%. On the same count and under the same terms, with `Nc1ccn([C@@H]2O[C@H](CO)[C@@H](N=C=S)[C@@H]2O)c(=O)n1` the figure was 34%. As to `Nc1ccn([C@@H]2O[C@H](CO)[C@@H](Br)[C@@H]2O)c(=O)n1`, the IC50 in the assay with L5178Y [2] was found to be 10 µg/mL (≈ 32.7 µM). As for `[N-]=[N+]=N[C@H]1[C@H](O)[C@H](n2ccc(N)nc2=O)O[C@@H]1CO`, the IC50 with L5178Y [2] turned out to be 0.5 µg/mL (≈ 1.86 µM).
